Data taken from patent publication US20130183239A1, “ISOTOPIC CARBON CHOLINE ANALOGS” (IMPERIAL COLLEGE, priority 2010, published 2013).

How the values were obtained:
[1] = tested on: human melanoma (A375), prostate (PC3-M) and colon (HCT116) cancer cell lines; assay: In vitro 18F-D4-choline uptake in cancer cell lines; format: cell-based; details: the three cell lines over 30 min
Experimental: Uptake was measured in vehicle-treated (closed symbols) and hemicholinium-3-treated cells (5 mM; open symbols). Mean values+SEM are shown (n=3). Insert: representative western blot of choline kinase-α expression in the three cell lines. Actin was used as a loading control. Abbreviations: CKα, choline kinase alpha.
Cells (5×10^5) were plated into 6-well plates the night prior to analysis. On the day of the experiment, fresh growth medium, containing 40 μCi ^18F-D4-choline, was added to individual wells. Cell uptake was measured following incubation at 37° C. in a humidified atmosphere of 5% CO2 for 60 min. Plates were subsequently placed on ice, washed 3 times with ice-cold PBS and lysed in RIPA buffer (Thermo Fisher Scientific Inc., Rockford, Ill., USA; 1 mL, 10 min). […] Aliquots were snap-frozen and used for protein determination following radioactive decay using a BCA 96-well plate assay (Thermo Fisher Scientific Inc., Rockford, Ill., USA). Data were expressed as percent of total radioactivity per mg protein. For hemicholinium-3 treatment (5 mM; Sigma-Aldrich), cells were incubated with the compound 30 min prior to addition of radioactivity and for the duration of the uptake time course. […]

choline oxidase = assay: Enzymatic oxidation study using choline oxidase; details: 60 minute time point, radio-HPLC
HCT116 tumors = details: mouse, in vivo
Experimental: Radiolabeled metabolites from plasma and tissues were quantified using a method adapted from Smith G, Zhao Y, Leyton J, et al. Radiosynthesis and pre-clinical evaluation of [(18)F]fluoro-[1,2-(2)H(4)]choline. Nucl Med Biol. 2011; 38:39-51. Briefly, tumor-bearing mice under terminal anaesthesia were administered a bolus i.v. injection of one of the following radiotracers: ^11C-choline, ^11C-D4-choline (˜18.5 MBq) or ^18F-D4-choline (˜3.7 MBq), and sacrificed by exsanguination via cardiac puncture at 2, 15, 30 or 60 min post radiotracer injection. For automated radiosynthesis methodology, see Example 22. Tumor, kidney and liver samples were immediately snap-frozen in liquid nitrogen. Aliquots of heparinized blood were rapidly centrifuged (14000 g, 5 min, 4° C.) to obtain plasma. Plasma samples were subsequently snap-frozen in liquid nitrogen and kept on dry ice prior to analysis.
For analysis, samples were thawed and kept at 4° C. immediately before use. To ice cold plasma (200 μl) was added ice cold methanol (1.5 mL) and the resulting suspension centrifuged (14000 g; 4° C.; 3 min). The supernatant was then decanted and evaporated to dryness on a rotary evaporator (bath temperature, 40° C.), then resuspended in HPLC mobile phase (Solvent A: acetonitrile/water/ethanol/acetic acid/1.0 M ammonium acetate/0.1 M sodium phosphate [800/127/68/2/3/10]; 1.1 mL). Samples were filtered through a hydrophilic syringe filter (0.2 μm filter; Millex PTFE filter, Millipore, Mass., USA) and the sample (˜1 mL) then injected via a 1 mL sample loop onto the HPLC for analysis. Tissues were homogenized in ice-cold methanol (1.5 mL) using an Ultra-Turrax T-25 homogenizer (IKA Werke GmbH and Co. KG, Staufen, Germany) and subsequently treated as per plasma samples.
Samples were analyzed on an Agilent 1100 series HPLC system (Agilent Technologies, Santa Clara, Calif., USA), configured as described above, using the method of Leyton J, Smith G, Zhao Y, et al. [18F]fluoromethyl-[1, 2-2H4]-choline: a novel radiotracer for imaging choline metabolism in tumors by positron emission tomography. Cancer Res. 2009; 69:7721-7728. A μBondapak C18 HPLC column (Waters, Milford, Mass., USA; […]), stationary phase and a mobile phase comprising of Solvent A (vide supra) and Solvent B (acetonitrile/water/ethanol/acetic acid/1.0 M ammonium acetate/0.1 M sodium phosphate (400/400/68/44/88/10)), delivered at a flow rate of 3 mL/min were used for analyte separation. The gradient was set as follows: 0% B for 5 min; 0% to 100% B in 10 min; 100% B for 0.5 min; 100% to 0% B in 2 min; 0% B for 2.5 min.
^11C-choline, ^11C-D4-choline and ^18F-D4-choline metabolism were measured in HCT116 tumors (FIG. 22).

[2] = mouse, in vivo
Experimental: ^11C-choline, ^11C-D4-choline (˜18.5 MBq) and ^18F-D4-choline (˜3.7 MBq) were each injected via the tail vein of anaesthetized BALB/c nude mice. The mice were maintained under anesthesia and sacrificed by exsanguination via cardiac puncture at 2, 15, 30 or 60 min post radiotracer injection to obtain blood, plasma, heart, lung, liver, kidney and muscle. Tissue radioactivity was determined on a gamma counter (Cobra II Auto-Gamma counter, Packard Biosciences Co, Pangbourne, UK) and decay corrected. Data were expressed as percent injected dose per gram of tissue.
Time course biodistribution was performed in non-tumor-bearing male nude mice with ^11C-choline, ^11C-D4-choline and ^18F-D4-choline tracers.

[3] = Potassium permanganate oxidation study; format: physicochemical; details: 1 hour post-treatment with potassium permanganate, room temperature, radio-HPLC
Excerpt: Reagents and Conditions: i) KMnO4, Na2CO3, H2O, rt.

Structure (SMILES): [2H]C([2H])(O)C([2H])([2H])[N+](C)(C)C[18F] [[^18F]D4-FCH, [^18F]fluoromethyl-[1,2-^2H4]-choline]
- in vitro uptake of 18F-D4-choline [1]: similar
- parent radiotracer present (choline oxidase): 29±4%
- tumor betaine radioactivity (HCT116 tumors): 14.0±3.0%
- tumor radioactivity corresponding to phosphocholine (HCT116 tumors): 45.1±3.2%
- higher un-metabolized parent tracer in tumor compared to 11C-D4-choline (HCT116 tumors; 1 h): 4.0 fold
- higher un-metabolized parent tracer in tumor compared to 11C-choline (HCT116 tumors; 1 h): 2.7 fold
- increase in kidney retention compared to 11C-choline [2]: 3.3 fold
- urinary excretion [2]: trend towards increased urinary excretion
- parent compound still present [3]: ~80%
